PMC12188386, “Selective CBP/EP300 Bromodomain Inhibitors: Novel Epigenetic Tools to Counter TNF-α-Driven Inflammation” (JACS Au, 2025)

How the values were obtained:
Assay in all cases: NCI-60 one-dose screen
Type in all cases: cell-based, human
NCI-H522 = conditions: 10 µM, 48 h, Non-Small Cell Lung Cancer
Procedure: (§1) Adapted from NCI-60 Screening Methodology, one-dose screen:20 Briefly, human tumor cell lines, grown in RPMI 1640 containing 5% FBS and 2 mM L-glutamine, were plated in 96 well plates at densities ranging from 5,000 to 40,000 cells/well 24 h prior to addition of test compounds (here 10 μM 2). 400x solutions of test compounds were prepared in DMSO, then diluted to 2x in medium supplemented with 50 μg/mL gentamicin. 100 μl of this 2x stock was added to cells previously plated in 100 μl medium, resulting in the desired final compound concentration. Cells were fixed in situ with cold TCA: untreated cells at the time of compound addition (Tz) and treated cells 48 h after addition of compound (Ti). Cells were washed, then su f rh damine s uti n μ at . w/v in acetic acid was added to each well and incubated for 10 minutes at room temperature. After washing again, the plates were air dried and bound stain solubilized with 10 mM Trizma base before absorbance was […]
(§2) Percentage growth (%Growth) was calculated as follows:
(§3) when Ti ≥ Tz, %Growth = Ti − Tz x 100 where Ti = absorbance from compound treated cells, Tz = absorbance from untreated cells at time zero, and C = absorbance from control (DMSO) treated cells. […]

OVCAR-5 = conditions: 10 µM, 48 h, Ovarian Cancer
Procedure: as §1, §2, §3

COLO 205 = conditions: 10 µM, 48 h, Colon Cancer
Procedure: as §1, §2, §3

UO-31 = conditions: 10 µM, 48 h, Renal Cancer
Procedure: as §1, §2, §3

MDA-MB-468 = conditions: 10 µM, 48 h, Breast Cancer, values <0 indicate lethality
Procedure: as §1, §2, §3

M14 = conditions: 10 µM, 48 h, Melanoma
Procedure: as §1, §2, §3

MCF7 = conditions: 10 µM, 48 h, Breast Cancer
Procedure: as §1, §2, §3

RPMI-8226 = conditions: 10 µM, 48 h, Leukemia
Procedure: as §1, §2, §3

U251 = conditions: 10 µM, 48 h, CNS Cancer
Procedure: as §1, §2, §3

NCI-H23 = conditions: 10 µM, 48 h, Non-Small Cell Lung Cancer
Procedure: as §1, §2, §3

SF-268 = conditions: 10 µM, 48 h, CNS Cancer
Procedure: as §1, §2, §3

HL-60(TB) = conditions: 10 µM, 48 h, Leukemia
Procedure: compounds with known characteristics were included as controls. Quantification of test and control compounds was performed by LC-MS/MS using an 8-point calibration curve under Cyprotex standard analytical conditions. The initial concentration (C0) at time zero was determined from the dosing solution, and recovery was calculated based on concentrations […]
The apparent permeability coefficient (Papp) is calculated from the equation (where dQ/dt is the drug permeation rate across the cells, C0 is the concentration in the donor compartment at time zero, and A is the area of the cell monolayer):
Efflux ratio (ER) is calculated from mean A-B and B-A data: […]
Adapted from NCI-60 Screening Methodology, one-dose screen:20 Briefly, human tumor cell lines, grown in RPMI 1640 containing 5% FBS and 2 mM L-glutamine, were plated in 96 well plates at densities ranging from 5,000 to 40,000 cells/well 24 h prior to addition of test compounds (here 10 μM 2). […] After washing again, the plates were air dried and bound stain solubilized with 10 mM Trizma base before absorbance was […]
as §2, §3

Cc1cc2c(NC(=O)c3cc(NC(=O)c4ccco4)cc(-c4ccn(C)n4)c3)cccc2nn1 [Compound 2]
%Growth (NCI-H522): 3%
%Growth (OVCAR-5): 89%
%Growth (COLO 205): 32%
%Growth (UO-31): 43%
%Growth (MDA-MB-468): -19%
%Growth (M14): 25%
%Growth (MCF7): 22%
%Growth (RPMI-8226): 32%
%Growth (U251): 61%
%Growth (NCI-H23): 71%
%Growth (SF-268): 72%
%Growth (HL-60(TB)): 25%
